# Reference: patent US7858349B2, “Anti-cancer compounds” (The Regents of the University of Colorado, priority 1999, dated 2010)
# Tested on: SCLC strain SHP-77
# Experiment: MTT assay for cell survival, SCLC SHP-77 in vitro
# Assay type: cell-based, human
# Details: ED50 for killing of SCLC strain SHP-77 in vitro, 4 days, 0 = no detectable activity, read-out: SCLC SHP-77 IC50
row,Compound,IC50
1,"O=C(c1ccccc1)c1ccc2n1CCC2C(=O)N[C@@H](Cc1ccc(OCc2c(Cl)cccc2Cl)cc1)C(=O)NC1CCN(Cc2ccccc2)CC1 (stereo partly drawn) [Analog M-1668, Ktlc-OC2Y-Abzp]",4.6 µM
2,"O=C(N[C@@H](Cc1ccc(OCc2c(Cl)cccc2Cl)cc1)C(=O)N1CCN(c2ncccn2)CC1)C(=Cc1ccccc1)c1ccccc1 [Analog M-1670, Pcn-OC2Y-Pmpz]",50 µM
3,"O=C(CC12CC3CC(CC(C3)C1)C2)N[C@@H](Cc1ccc(OCc2c(Cl)cccc2Cl)cc1)C(=O)N1CCN(c2ncccn2)CC1 [Analog M-1672, Aaa-OC2Y-Pmpz]",> 50 µM
4,"CN1CCN(CCCNC(=O)[C@H](Cc2ccc(OCc3c(Cl)cccc3Cl)cc2)NC(=O)C2CCn3c(C(=O)c4ccccc4)ccc32)CC1 (stereo partly drawn) [Analog M-1674, Ktlc-OC2Y-Amp]",3.2 µM
5,"CN1CCN(CCCNC(=O)[C@H](Cc2ccc(OCc3c(Cl)cccc3Cl)cc2)NC(=O)C23CC4CC(CC(C4)C2)C3)CC1 [Analog M-1676, Aca-OC2Y-Amp]",6.2 µM
6,"O=C(NC1CCN(Cc2ccccc2)CC1)[C@H](Cc1ccc(OCc2c(Cl)cccc2Cl)cc1)NC(=O)C12CC3CC(CC(C3)C1)C2 [Analog M-1678, Aca-OC2Y-Abzp]",7.8 µM
7,"O=C([C@H](Cc1ccc(OCc2c(Cl)cccc2Cl)cc1)NC(=O)C12CC3CC(CC(C3)C1)C2)N1CCN(c2ncccn2)CC1 [Analog M-1680, Aca-OC2Y-Pmpz]",33 µM
8,"CC1(C)CC(NC(=O)[C@@H](Cc2ccc(OCc3c(Cl)cccc3Cl)cc2)NC(=O)C(=Cc2ccccc2)c2ccccc2)CC(C)(C)N1 [Analog M-1682, Pcn-D-OC2Y-Atmp]",1.8 µM
9,"CC1(C)CC(NC(=O)C(NC(=O)C(=Cc2ccccc2)c2ccccc2)C2Cc3ccccc3C2)CC(C)(C)N1 (stereo not drawn) [Analog M-1684, Pcn-Igl-Atmp]",4.2 µM
10,"CC1(C)CC(NC(=O)C(NC(=O)C2CCn3c(C(=O)c4ccccc4)ccc32)C2Cc3ccccc3C2)CC(C)(C)N1 (stereo not drawn) [Analog M-1686, Ktlc-Igl-Atmp]",14 µM
11,"COc1ccc2c(c1)c(CC(=O)NC(C(=O)NC1CC(C)(C)NC(C)(C)C1)C1Cc3ccccc3C1)c(C)n2C(=O)c1ccc(Cl)cc1 (stereo not drawn) [Analog M-1688, Indo-Igl-Atmp]",4 µM
12,"O=C(C=Cc1c(F)c(F)c(F)c(F)c1F)NC(C(=O)N1CCN(Cc2c(F)c(F)c(F)c(F)c2F)CC1)C1Cc2ccccc2C1 (stereo not drawn) [Analog M-1690, F5c-Igl-Pipz(F5b)]",25 µM
13,"CC1(C)CC(NC(=O)[C@H](Cc2ccc(OCc3c(Cl)cccc3Cl)cc2)NC(=O)C(Cl)Cl)CC(C)(C)N1 [Analog M-1692, Dcla-OC2Y-Atmp]",7.2 µM
14,"CN1CCN(CCCNC(=O)C(Cc2ccc(OCc3c(Cl)cccc3Cl)cc2)NC(=O)c2c3ccccc3nc3ccccc23)CC1 (stereo not drawn) [Analog M-1700, Acrc-OC2Y-Amp]",7.3 µM
15,"CN1CCN(CCCNC(=O)C(Cc2ccc(OCc3c(Cl)cccc3Cl)cc2)NC(=O)c2ccc3c(c2)C(=O)c2ccccc2C3=O)CC1 (stereo not drawn) [Analog M-1702, Aq2c-OC2Y-Amp]",3.6 µM
16,"CC1(C)CC(NC(=O)C(Cc2ccc(OCc3c(Cl)cccc3Cl)cc2)NC(=O)c2cccnc2)CC(C)(C)N1 (stereo not drawn) [Analog M-1704, Pyrc-OC2Y-Atmp]",25 µM
17,"CC1(C)CC(NC(=O)C(Cc2ccc(OCc3c(Cl)cccc3Cl)cc2)NC(=O)c2cccc3ccccc23)CC(C)(C)N1 (stereo not drawn) [Analog M-1706, 1Nap-OC2Y-Atmp]",4.2 µM
18,"CC1(C)CC(NC(=O)C(Cc2ccc(OCc3c(Cl)cccc3Cl)cc2)NC(=O)Cc2cccc3ccccc23)CC(C)(C)N1 (stereo not drawn) [Analog M-1708, 1Nala-OC2Y-Atmp]",7.2 µM
19,"CC1(C)CC(NC(=O)C(Cc2ccc(OCc3c(Cl)cccc3Cl)cc2)NC(=O)Cc2ccc3ccccc3c2)CC(C)(C)N1 (stereo not drawn) [Analog M-1710, 2Nala-OC2Y-Atmp]",1.7 µM
20,"CC1(C)CC(NC(=O)C(Cc2ccc(OCc3c(Cl)cccc3Cl)cc2)NC(=O)c2cccnc2Cl)CC(C)(C)N1 (stereo not drawn) [Analog M-1714, 2Cln-OC2Y-Atmp]",4 µM
21,"Cc1nc2ccccc2c(C(=O)NC(Cc2ccc(OCc3c(Cl)cccc3Cl)cc2)C(=O)NC2CC(C)(C)NC(C)(C)C2)c1O (stereo not drawn) [Analog M-1716, Hmqc-OC2Y-Atmp]",7.2 µM
22,"C=CC(=O)NC(NC(=O)C=C)C(=O)NC(Cc1ccc(OCc2c(Cl)cccc2Cl)cc1)C(=O)NC1CC(C)(C)NC(C)(C)C1 (stereo not drawn) [Analog M-1718, Baaa-OC2Y-Atmp]",> 60 µM
23,"O=C(C=Cc1c(F)c(F)c(F)c(F)c1F)NC(Cc1c(F)c(F)c(F)c(F)c1F)C(=O)N1CCN(Cc2c(F)c(F)c(F)c(F)c2F)CC1 (stereo not drawn) [Analog M-1730, F5c-F5F-Pipz(F5b)]",21 µM

row,Compound,IC50
1,"O=C(C=Cc1c(F)c(F)c(F)c(F)c1F)NC(Cc1ccc(OCc2c(Cl)cccc2Cl)cc1)C(=O)N1CCN(Cc2c(F)c(F)c(F)c(F)c2F)CC1 (stereo not drawn) [Analog M-1732, F5c-OC2Y-Pipz(F5b)]",24 µM
2,"O=C(NC(Cc1ccc(OCc2c(Cl)cccc2Cl)cc1)C(=O)N1CCN(Cc2c(F)c(F)c(F)c(F)c2F)CC1)C(=Cc1ccccc1)c1ccccc1 (stereo not drawn) [Analog M-1734, Pcn-OC2Y-Pipz(F5b)]",24 µM
3,"CC1(C)CC(NC(=O)C(Cc2ccc(OCc3c(Cl)cccc3Cl)cc2)NC(=O)C(C)(C)C)CC(C)(C)N1 (stereo not drawn) [Analog M-1736, Piva-OC2Y-Atmp]",13 µM
4,"COc1ccc2c(CC(=O)NC(Cc3ccc(OCc4c(Cl)cccc4Cl)cc3)C(=O)NC3CC(C)(C)NC(C)(C)C3)cc(=O)oc2c1 (stereo not drawn) [Analog M-1744, Mcoa-OC2Y-Atmp]",7.1 µM
5,"CCC(C(=O)NC(Cc1ccc(OCc2c(Cl)cccc2Cl)cc1)C(=O)NC1CC(C)(C)NC(C)(C)C1)C1CCCCC1 (stereo not drawn) [Analog M-1746, Chbu-OC2Y-Atmp]",1.6 µM
6,"CC(C)(C)CC(=O)NC(Cc1ccc(OCc2c(Cl)cccc2Cl)cc1)C(=O)NC1CC(C)(C)NC(C)(C)C1 (stereo not drawn) [Analog M-1748, tBua-OC2Y-Atmp]",7.1 µM
7,"CO[C@](C(=O)NC(Cc1ccc(OCc2c(Cl)cccc2Cl)cc1)C(=O)NC1CC(C)(C)NC(C)(C)C1)(c1ccccc1)C(F)(F)F (stereo partly drawn) [Analog M-1750, (S)-MTPA-OC2Y-Atmp]",4.2 µM
8,"CO[C@@](C(=O)NC(Cc1ccc(OCc2c(Cl)cccc2Cl)cc1)C(=O)NC1CC(C)(C)NC(C)(C)C1)(c1ccccc1)C(F)(F)F (stereo partly drawn) [Analog M-1752, (R)-MTPA-OC2Y-Atmp]",4 µM
9,"CC1(C)CC(NC(=O)C(Cc2ccc(OCc3c(Cl)cccc3Cl)cc2)NC(=O)C(c2ccc(Cl)cc2)c2ccc(Cl)cc2)CC(C)(C)N1 (stereo not drawn) [Analog M-1754, Bcpa-OC2Y-Atmp]",1.5 µM
10,"CC1(C)CC(NC(=O)C(Cc2cc(I)c(OCc3c(Cl)cccc3Cl)c(I)c2)NC(=O)C(=Cc2ccccc2)c2ccccc2)CC(C)(C)N1 (stereo not drawn) [Analog M-1760, Pcn-OCIY-Atmp]",2 µM
11,"CC1(C)CC(NC(=O)C(Cc2cc(I)c(OCc3c(Cl)cccc3Cl)c(I)c2)NC(=O)C(c2ccc(Cl)cc2)c2ccc(Cl)cc2)CC(C)(C)N1 (stereo not drawn) [Analog M-1762, Bcpa-OCIY-Atmp]",3 µM
12,"CC1(C)CC(NC(=O)C(Cc2ccc(-c3ccccc3)cc2)NC(=O)C(=Cc2ccccc2)c2ccccc2)CC(C)(C)N1 (stereo not drawn) [Analog M-1764, Pcn-Bip-Atmp]",2.5 µM
13,"CC1(C)CC(NC(=O)C(Cc2ccc(-c3ccccc3)cc2)NC(=O)C(Oc2ccc(Cl)cc2)Oc2ccc(Cl)cc2)CC(C)(C)N1 (stereo not drawn) [Analog M-1766, Bcpoa-Bip-Atmp]",2 µM
14,"CC1(C)CC(NC(=O)C2Cc3ccccc3CN2C(=O)C(=Cc2ccccc2)c2ccccc2)CC(C)(C)N1 (stereo not drawn) [Analog M-1770, Pcn-Tic-Atmp]",5.4 µM
15,"CC1(C)CC(NC(=O)C(Cc2ccc(OCc3c(Cl)cccc3Cl)cc2)NC(=O)C=Cc2ccc(-c3ccccc3)cc2)CC(C)(C)N1 (stereo not drawn) [Analog M-1776, Pcin-OC2Y-Atmp]",1.4 µM
16,"Cc1ccccc1C=CC(=O)NC(Cc1ccc(OCc2c(Cl)cccc2Cl)cc1)C(=O)NC1CC(C)(C)NC(C)(C)C1 (stereo not drawn) [Analog M-1778, Mca-OC2Y-Atmp]",1.5 µM
17,"CC1(C)CC(NC(=O)C(Cc2ccc(OCc3c(Cl)cccc3Cl)cc2)NC(=O)CC=Cc2ccccc2)CC(C)(C)N1 (stereo not drawn) [Analog M-1780, Saa-OC2Y-Atmp]",1.8 µM
18,"CC1(C)CC(NC(=O)C(Cc2ccc(OCc3c(Cl)cccc3Cl)cc2)NC(=O)Cc2ccc(-c3ccccc3)cc2)CC(C)(C)N1 (stereo not drawn) [Analog M-1782, Bipa-OC2Y-Atmp]",3 µM
19,"CC1(C)CC(NC(=O)C(Cc2ccc(F)cc2)NC(=O)C(=Cc2ccccc2)c2ccccc2)CC(C)(C)N1 (stereo not drawn) [Analog M-1788, Pcn-PFF-Atmp]",2.3 µM
20,"CC1(C)CC(NC(=O)C(Cc2ccc(C(F)(F)F)cc2)NC(=O)C(=Cc2ccccc2)c2ccccc2)CC(C)(C)N1 (stereo not drawn) [Analog M-1790, Pcn-F3MF-Atmp]",2.2 µM
21,"CC1(C)CC(NC(=O)C(Cc2ccc(-c3ccccc3)cc2)NC(=O)Cc2ccc(-c3ccccc3)cc2)CC(C)(C)N1 (stereo not drawn) [Analog M-1796, Bipa-Bip-Atmp]",1.5 µM
22,"CC(C)CC(NC(=O)OCC1c2ccccc2-c2ccccc21)C(=O)NC1CC(C)(C)NC(C)(C)C1 (stereo not drawn) [Analog M-1798, Fmoc-Leu-Atmp]",7.6 µM
23,"CC1(C)CC(NC(=O)C(Cc2ccc(OCc3c(Cl)cccc3Cl)cc2)NC(=O)OCC2c3ccccc3-c3ccccc32)CC(C)(C)N1 (stereo not drawn) [Analog M-1800, Fmoc-OC2Y-Atmp]",1.7 µM

# Same assay, conditions: ED50 for killing of SCLC strain SHP-77 in vitro, 4 days, 0 = no detectable activity, read-out: SHP-77 In vitro IC50
row,Compound,IC50
1,"CC1(C)CC(NC(=O)C(Cc2ccc(OCc3c(Cl)cccc3Cl)cc2)NC(=O)C(F)(F)C(F)(F)C(F)(F)C(=O)O)CC(C)(C)N1 (stereo not drawn) [M-1098 #1, CHFB-OC2Y-Atmp]",> 60 µM
2,"CC1(C)CC(NC(=O)C(Cc2ccc(OCc3c(Cl)cccc3Cl)cc2)NC(=O)C(F)(F)C(F)(F)C(F)(F)C(=O)O)CC(C)(C)N1 (stereo not drawn) [M-1098 #2, CHFB-OC2Y-Atmp]",6.8 µM
